# Test results: patent publication US20060105045A1, “Cyclodextrin solubilizers for liquid and semi-solid formulations” (priority 2004, published 2006)
# Where a name gives a salt, the structure may show the parent alone.
# What was measured:
# [1] = Initial solubility screening of selected drugs in cyclodextrin derivative:water-miscible organic solvent stock solutions; assay type: physicochemical; conditions: for grams of stock solution required to solubilize the drug, Stock #2 / grams of stock solution required to solubilize the drug, Stock #3 / grams of stock solution required to solubilize the drug, Stock #1 / grams of stock solution required to solubilize the drug, Stock #5 / grams of stock solution required to solubilize the drug, Stock #6 / grams of stock solution required to solubilize the drug, Stock #4 / grams of stock solution required to solubilize the drug, Stock #7: 20-22 mg drug, raloxifene HCl + ca. 100 mg water, tamoxifen citrate + ca. 40 mg water; for grams of stock solution required to solubilize the drug, Stock #2 / grams of stock solution required to solubilize the drug, Stock #3 / grams of stock solution required to solubilize the drug, Stock #1: HBenβCD5.0 (30 wt %); for grams of stock solution required to solubilize the drug, Stock #2 / grams of stock solution required to solubilize the drug, Stock #3: PEG 400 (66.2 wt %); for grams of stock solution required to solubilize the drug, Stock #2: EtOH (3.8 wt %); for grams of stock solution required to solubilize the drug, Stock #3: PG (3.8 wt %); for grams of stock solution required to solubilize the drug, Stock #1: PEG 400 (70 wt %); for grams of stock solution required to solubilize the drug, Stock #5 / grams of stock solution required to solubilize the drug, Stock #6 / grams of stock solution required to solubilize the drug, Stock #4: HBenβCD6.6 (32 wt %); for grams of stock solution required to solubilize the drug, Stock #5 / grams of stock solution required to solubilize the drug, Stock #6: PEG 400 (64.6 wt %); for grams of stock solution required to solubilize the drug, Stock #5 / grams of stock solution required to solubilize the drug, Stock #7: EtOH (3.4 wt %); for grams of stock solution required to solubilize the drug, Stock #6: PG (3.4 wt %); for grams of stock solution required to solubilize the drug, Stock #4: PEG 400 (68 wt %); for grams of stock solution required to solubilize the drug, Stock #7: SulfoHBenCD (29 wt %), PEG 400 (67.6 wt %); for amount of stock solutions in which the drug was soluble: after mixing for ca. 48 h, all stock solutions
# Method: In the following experiments, the water-miscible solvents were dried as described in example 1. The hydroxybutenyl-β-cyclodextrins (HBenβCD6.6 and HBenβCD5.0) and the sulfonated hydroxybutenyl-β-cyclodextrins (MSsulfonate=0.3, MSbutentyl=4.4) were carefully dried prior to use. The following stock solutions were prepared:
# 2. HBenβCD5.0 (30 wt %), PEG 400 (66.2 wt %), and EtOH (3.8 wt %)
# 7. SulfoHBenCD (29 wt %), PEG 400 (67.6 wt %), and EtOH (3.4 wt %)
# Various drugs (20-22 mg) were weighed into different glass vials with screw caps. To each vial was added 1 gram (g) ±0.02 g of stock solution. The vial contents were mixed for ca. 48 h. Vials were inspected visually to determine whether the drugs were dissolved.
# [2] = Pharmacokinetic study, oral bioavailability of tamoxifen:HBenBCD complexes; assay type: in vivo, Sprague-Dawley rats; conditions: male, Sprague-Dawley, rat, plasma, 10 mg/kg
# Method: 7, 2005, concurrently with this application (no Serial assigned at this time). […] The solid complexes were dissolved in the appropriate amount of water for aqueous oral dosing of animals.
# The study animal were male Sprague-Dawley rats. […] Each group was sub-divided into 4 groups of 3 animals on the basis of time of dosing (AM or PM) and diet (fed or fasted). In the case of fasted animals, food was removed 8 hours prior to dosing then returned 5 hours post-dose.
# Blood samples (ca. 300 μL) were collected from each animal via the jugular or sublingual vein at 1, 2, 3, 4, 6, 12 and 24 hours post-dose. Plasma was separated and stored in 96 well plates at −17 to −80° C. until analysis. […] Plasma (100 μL) was precipitated with 250 μL of acetonitrile. After centrifugation, the supernatant was analyzed for tamoxifen, hydroxytamoxifen, and desmethyltamoxifen by reversed phase LC-MS-MS using diphenhydramine as an internal standard.
# This oral suspension dose was given to fed animals in the AM.
# The area under the plasma concentration-time curve (AUC) from time zero to 24 h (AUC0-24h) and from time zero to infinity (AUC0-∞) was calculated by standard methods (Clinical Pharmacokinetics, Malcolm Rowland and Thomas Tozer, Lippincott, Williams, & Wilkins, 1995). Oral bioavailability was determined using the AUC from the IV and oral doses adjusted for the animal dose.
SMILES,"grams of stock solution required to solubilize the drug, Stock #2 [1] [grams]","grams of stock solution required to solubilize the drug, Stock #3 [1] [grams]","grams of stock solution required to solubilize the drug, Stock #1 [1] [grams]","grams of stock solution required to solubilize the drug, Stock #5 [1] [grams]","grams of stock solution required to solubilize the drug, Stock #6 [1] [grams]","grams of stock solution required to solubilize the drug, Stock #4 [1] [grams]","grams of stock solution required to solubilize the drug, Stock #7 [1] [grams]",amount of stock solutions in which the drug was soluble [1] [g],bioavailability [2] [%]
CC(C)(C#N)c1cc(Cn2cncn2)cc(C(C)(C)C#N)c1 [Anastrozole],1.0,1.0,1.0,1.0,1.0,1.0,1.0,1,–
C=C1C[C@@H]2[C@H](CC[C@]3(C)C(=O)CC[C@@H]23)[C@@]2(C)C=CC(=O)C=C12 [Exemestane],1.5,1.5,1.5,1.5,1.5,1.5,1.5,–,–
CC(=O)O[C@H]1C(=O)[C@@]2(C)[C@H]([C@H](OC(=O)c3ccccc3)[C@]3(O)C[C@H](OC(=O)[C@H](O)[C@@H](NC(=O)c4ccccc4)c4ccccc4)C(C)=C1C3(C)C)[C@]1(OC(C)=O)CO[C@@H]1C[C@@H]2O [Paclitaxel],1.0,1.0,1.0,1.0,1.0,1.0,1.0,1,–
O=C(c1ccc(OCCN2CCCCC2)cc1)c1c(-c2ccc(O)cc2)sc2cc(O)ccc12 [Raloxifene HCL],1.4,1.6,1.5,1.6,1.6,1.6,1.1,–,–
CC/C(=C(\c1ccccc1)c1ccc(OCCN(C)C)cc1)c1ccccc1 [Tamoxifen],–,–,–,–,–,–,–,–,5
